In brackets after ≈: the same amount, converted by molar mass. Numbered stars: 1 amine (or outer) side, 2 acyl side, 3 side chain; on linkers, the order of the positions; unused ones are H or OH. Bridge positions count the residues as written; N and C are the ends. Square brackets hold non-standard residues; d marks the D form. Peptide text beside a SMILES is read from it. * marks the point of attachment. hTyr(3S-OH,4S-OH,3'-OSO3H) = N[C@H](C(=O)O)[C@H](O)[C@@H](O)c1ccc(O)c(OS(=O)(=O)O)c1; pTerphenylCO(4''-OnC5H11) = CCCCCOc1ccc(-c2ccc(-c3ccc(C(=O)*)cc3)cc2)cc1; Orn(4R-OH,5R-OH) = O=C([C@H](C[C@@H](O)[C@@H](O)N[*:3])N[*:1])[*:2]; hTyr(3S-OH,4S-OH) = N[C@H](C(=O)O)[C@H](O)[C@@H](O)c1ccc(O)cc1; Pro(3S-OH,4S-Me) = C[C@H]1CN[C@H](C(=O)O)[C@H]1O; X1 = CCCCCOc1ccc(-c2cc(-c3ccc(C(=O)*)cc3)no2)cc1; Gln(3R-OH) = NC(=O)C[C@@H](O)[C@H](N)C(=O)O; Hyp = O=C(O)[C@@H]1C[C@@H](O)CN1 A value given as a limit tells only on which side of the number the result lay.

The test system of this assay is Magnusiomyces capitatus. The experiment in a line: Antimicrobial activity against Blastoschizomyces capitatus by microdilution method. It counts as functional.
As for `C[C@@H]1[C@H](O)[C@@H](C)/C=C/C=C/C=C/C=C/C=C/C=C/C=C/[C@H](O[C@@H]2O[C@H](C)[C@@H](O)[C@H](N)[C@@H]2O)C[C@@H]2O[C@](O)(C[C@@H](O)C[C@@H](O)[C@H](O)CC[C@@H](O)C[C@@H](O)CC(=O)O[C@H]1C)C[C@H](O)[C@H]2C(=O)O` [AMPHOTERICIN B], the MIC was determined as 0.5 µg/mL (≈ 0.541 µM).
As for `CCCCCOc1ccc(-c2ccc(-c3ccc(C(=O)N[C@H]4C[C@@H](O)[C@@H](O)NC(=O)[C@@H]5[C@@H](O)[C@@H](C)CN5C(=O)[C@H]([C@@H](C)O)NC(=O)[C@H]([C@H](O)[C@@H](O)c5ccc(O)cc5)NC(=O)[C@@H]5C[C@@H](O)CN5C(=O)[C@H]([C@@H](C)O)NC4=O)cc3)cc2)cc1` [ANIDULAFUNGIN] ({pTerphenylCO(4''-OnC5H11)}-[Orn(4R-OH,5R-OH)]T[Hyp][hTyr(3S-OH,4S-OH)]T[Pro(3S-OH,4S-Me)]; lactam 1-C), the minimum inhibitory concentration (MIC) is 0.5 µg/mL (≈ 0.438 µM).
For `CC[C@H](C)C[C@H](C)CCCCCCCCC(=O)N[C@H]1C[C@@H](O)[C@@H](NCCN)NC(=O)[C@@H]2[C@@H](O)CCN2C(=O)[C@H]([C@H](O)CCN)NC(=O)[C@H]([C@H](O)[C@@H](O)c2ccc(O)cc2)NC(=O)[C@@H]2C[C@@H](O)CN2C(=O)[C@H]([C@@H](C)O)NC1=O` [CASPOFUNGIN] the value was 8 µg/mL (≈ 7.32 µM); for `OC(Cn1cncn1)(Cn1cncn1)c1ccc(F)cc1F` [FLUCONAZOLE], 4 µg/mL (≈ 13.1 µM).
Compound `Nc1nc(=O)[nH]cc1F` [FLUCYTOSINE] registered an MIC of at most 0.06 µg/mL.
With `CCC(C)n1ncn(-c2ccc(N3CCN(c4ccc(OCC5COC(Cn6cncn6)(c6ccc(Cl)cc6Cl)O5)cc4)CC3)cc2)c1=O` (centres undefined) [ITRACONAZOLE], the MIC was found to be 0.06 µg/mL (≈ 0.085 µM).
In the case of `CCCCCOc1ccc(-c2cc(-c3ccc(C(=O)N[C@H]4C[C@@H](O)[C@@H](O)NC(=O)[C@@H]5[C@@H](O)[C@@H](C)CN5C(=O)[C@H]([C@H](O)CC(N)=O)NC(=O)[C@H]([C@H](O)[C@@H](O)c5ccc(O)c(OS(=O)(=O)O)c5)NC(=O)[C@@H]5C[C@@H](O)CN5C(=O)[C@H]([C@@H](C)O)NC4=O)cc3)no2)cc1` [MICAFUNGIN] (X1-[Orn(4R-OH,5R-OH)]T[Hyp][hTyr(3S-OH,4S-OH,3'-OSO3H)][Gln(3R-OH)][Pro(3S-OH,4S-Me)]; lactam 1-C), the minimum inhibitory concentration (MIC) was 0.5 µg/mL (≈ 0.394 µM).
`CC[C@@H]([C@H](C)O)n1ncn(-c2ccc(N3CCN(c4ccc(OC[C@@H]5CO[C@@](Cn6cncn6)(c6ccc(F)cc6F)C5)cc4)CC3)cc2)c1=O` [POSACONAZOLE] came in with a minimal inhibitory concentration (MIC) of 0.12 µg/mL (≈ 0.171 µM).
`C[C@@H](c1ncncc1F)[C@](O)(Cn1cncn1)c1ccc(F)cc1F` [VORICONAZOLE]: it took 0.06 µg/mL (≈ 0.172 µM) to inhibit growth (MIC). Compared with the last compound, the MIC is about 2-fold lower.
